Results as given in article PMC11945486, “TAS1R2/TAS1R3 Single-Nucleotide Polymorphisms Affect Sweet Taste Receptor Activation by Sweeteners: The SWEET Project” (Nutrients, 2025).
No end group written: not given here.

T1: human TAS1R2-P21L/TAS1R3-WT (Homo sapiens, UniProt Q7RTX0+Q8TE23, P21L)
T1 construct: expressed in transfected cells; host or cells: HEK293T-Gα16gust44
T1 sequence (Q8TE23 20-839 P21L): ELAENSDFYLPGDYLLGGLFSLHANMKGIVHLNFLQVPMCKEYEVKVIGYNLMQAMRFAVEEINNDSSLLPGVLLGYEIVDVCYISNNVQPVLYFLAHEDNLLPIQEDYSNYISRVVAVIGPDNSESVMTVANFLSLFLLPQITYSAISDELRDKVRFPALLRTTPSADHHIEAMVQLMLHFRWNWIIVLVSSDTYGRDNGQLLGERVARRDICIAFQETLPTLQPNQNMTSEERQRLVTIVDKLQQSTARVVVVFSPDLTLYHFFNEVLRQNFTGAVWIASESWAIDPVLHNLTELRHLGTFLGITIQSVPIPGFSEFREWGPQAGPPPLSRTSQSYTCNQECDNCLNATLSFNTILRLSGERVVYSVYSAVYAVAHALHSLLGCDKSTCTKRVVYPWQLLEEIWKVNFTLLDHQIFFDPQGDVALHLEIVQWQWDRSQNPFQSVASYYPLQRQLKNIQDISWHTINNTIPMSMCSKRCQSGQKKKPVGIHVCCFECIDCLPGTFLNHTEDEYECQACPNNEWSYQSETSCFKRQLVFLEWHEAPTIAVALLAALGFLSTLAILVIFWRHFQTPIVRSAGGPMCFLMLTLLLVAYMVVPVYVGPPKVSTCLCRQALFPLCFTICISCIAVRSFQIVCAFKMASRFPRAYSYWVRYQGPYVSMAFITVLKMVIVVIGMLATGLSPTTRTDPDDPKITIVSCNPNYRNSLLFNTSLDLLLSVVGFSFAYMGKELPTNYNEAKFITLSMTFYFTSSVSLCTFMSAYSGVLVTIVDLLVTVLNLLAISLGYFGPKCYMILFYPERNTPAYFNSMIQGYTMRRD
T1 sequence (Q7RTX0 21-852): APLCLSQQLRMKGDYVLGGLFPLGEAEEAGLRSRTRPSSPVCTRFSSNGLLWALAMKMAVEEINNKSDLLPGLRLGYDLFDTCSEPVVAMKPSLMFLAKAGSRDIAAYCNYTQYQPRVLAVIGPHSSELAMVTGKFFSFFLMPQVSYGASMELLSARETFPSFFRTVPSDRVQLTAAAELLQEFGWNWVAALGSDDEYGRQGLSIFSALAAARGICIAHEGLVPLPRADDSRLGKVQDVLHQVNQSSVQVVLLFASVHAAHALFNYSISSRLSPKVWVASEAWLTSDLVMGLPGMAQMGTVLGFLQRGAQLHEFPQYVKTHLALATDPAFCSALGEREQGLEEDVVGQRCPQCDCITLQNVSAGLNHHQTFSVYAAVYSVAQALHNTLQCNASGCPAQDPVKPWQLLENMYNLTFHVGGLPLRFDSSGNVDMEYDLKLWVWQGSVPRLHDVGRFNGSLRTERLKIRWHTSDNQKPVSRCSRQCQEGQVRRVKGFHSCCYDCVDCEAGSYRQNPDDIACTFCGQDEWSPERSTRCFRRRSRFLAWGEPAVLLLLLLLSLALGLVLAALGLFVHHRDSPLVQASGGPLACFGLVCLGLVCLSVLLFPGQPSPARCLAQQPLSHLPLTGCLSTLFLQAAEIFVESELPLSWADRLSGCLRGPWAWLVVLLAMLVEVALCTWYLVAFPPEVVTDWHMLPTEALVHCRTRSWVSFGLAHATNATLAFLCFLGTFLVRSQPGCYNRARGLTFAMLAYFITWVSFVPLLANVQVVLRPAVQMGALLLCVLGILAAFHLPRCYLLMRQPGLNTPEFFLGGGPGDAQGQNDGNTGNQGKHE


Molecular target: T1, human TAS1R2-P21L/TAS1R3-WT
Assay: Calcium mobilisation assay, TAS1R2 variant P21L with TAS1R3-WT
Assay type: cell-based
Conditions: for Max ΔF/F0: maximal signal amplitude
Source text: The coding sequences for TAS1R2 and TAS1R3 were commercially synthesised, and the human codon was optimised for expression in human cells. The coding sequences of human TAS1R2 and TAS1R3 were subcloned and inserted into the mammalian expression vectors pcDNA6/myc-HisA and pcDNA4/myc-HisA (Invitrogen; Thermo Fisher Scientific; Illkirch, France) between the EcoRI and NotI restriction sites, generating the plasmids pcDNA6-TAS1R2 and pcDNA4-TAS1R3, respectively. To increase protein expression in mammalian cells, an upstream start codon was used, which was a sequence called MAX, corresponding to the QBI SP163 element also described in pcDNA4-HisMax (Invitrogen; Thermo Fisher Scientific; Illkirch, France). To measure the expression level of the receptor by immunohistochemistry, we used the FLAG sequence ([…]) in the C-terminal position, which encodes the FLAG tag epitope. SNP variants of TAS1R2 and TAS1R3 were constructed based on […], respectively, using site-directed mutagenesis (Genewiz; Leipzig, Germany).
The HEK293T cells were kindly provided by Jay P. Slack (Givaudan Flavors Corporation; Cincinnati, OH, USA). HEK293T cells stably transfected with Gα16gust44 [43, 67] were seeded in poly-D-lysine-coated clear-bottom black 96-well plates (0.35 × 10^5 cells/well) in high-glucose DMEM supplemented with 2 mM GlutaMAX, 10% dialysed foetal bovine serum with penicillin/streptomycin and G418 (400 μg/mL) at 37 °C and 6.3% CO2 in a humidified atmosphere as previously reported. […] As a negative control, HEK293T cells were mock-transfected with the empty expression vector. After a further 24 h of incubation, the HEK293T cells were washed with C1 buffer (130 mM NaCl, 5 mM KCl, 10 mM HEPES pH 7.4 and 2 mM CaCl2). The 96-well plates containing the cells were then stimulated with sweet-tasting compounds. […] Different concentration ranges were tested depending on the sweet compound injected. The Ca^2+ changes were expressed as fractional changes in fluorescent light intensity: ΔF/F = (F − F0)/F0, where F was the fluorescent light intensity at each point, and F0 was the value of emitted fluorescent light prior to stimulus application. To calculate dose–response relationships, the changes in fluorescence upon stimulus application were averaged, mock-subtracted and baseline-corrected. The dose–response data obtained were adjusted using a 4-parameter logistic equation. The half-maximal effective concentrations (EC50 values) and maximal signal amplitudes were calculated using SigmaPlot software (version 15.0) (Systat Software; San Jose, CA, USA).
For in vitro calcium mobilisation assay performed on hTAS1R2-SNPs, hTAS1R3-SNPs and mTAS1R3-I60T, 6 to 7 concentrations were tested for each sweet compound, plus buffer alone. All concentration–receptor combinations were measured in duplicate, and each experiment was repeated at least 4 times (8 wells/concentration). Results were expressed for each concentration as ΔF/F mean ± SEM and represented as dose–response curves.

Molecule	EC50 [µM]	R1 = Variant EC50/WT EC50	Max ΔF/F0
CC1=CC(=O)NS(=O)(=O)O1 [Acesulfame K, acesulfame K]	374 ± 11	0.5	0.24 ± 0.01
O=S(=O)(O)NC1CCCCC1 [Cyclamate, cyclamate]	2110 ± 55		
C[C@H](CC[C@@H](O[C@@H]1O[C@H](CO[C@@H]2O[C@H](CO)[C@@H](O)[C@H](O)[C@H]2O)[C@@H](O)[C@H](O)[C@H]1O[C@@H]1O[C@H](CO)[C@@H](O)[C@H](O)[C@H]1O)C(C)(C)O)[C@H]1CC[C@@]2(C)[C@@H]3CC=C4[C@@H](CC[C@H](O[C@@H]5O[C@H](CO[C@@H]6O[C@H](CO)[C@@H](O)[C@H](O)[C@H]6O)[C@@H](O)[C@H](O)[C@H]5O)C4(C)C)[C@]3(C)[C@H](O)C[C@]12C [Mogroside V, mogroside V]	19.9 ± 1.1	1.2	1.18 ± 0.02
COc1ccc(CCC(=O)c2c(O)cc(O[C@@H]3O[C@H](CO)[C@@H](O)[C@H](O)[C@H]3O[C@@H]3O[C@@H](C)[C@H](O)[C@@H](O)[C@H]3O)cc2O)cc1O [NHDC, neohesperidin dihydrochalcone]	100 ± 5.1	1.3	0.81 ± 0.02
COC(=O)[C@H](Cc1ccccc1)NC(=O)[C@H](CC(=O)O)NCCC(C)(C)C [Neotame]	0.67 ± 0.16	0.8	0.53 ± 0.04
C=C(C)[C@@H]1CC=C(/C=N/O)CC1 [Perillartine, perillartine]	26.3 ± 1.1	1.5	1.35 ± 0.03

Second part, the molecule after the results:

EC50 [µM]	R1 = Variant EC50/WT EC50	Max ΔF/F0	Molecule
19.5 ± 0.9	1.2	0.99 ± 0.02	C=C1C[C@@]23CC[C@H]4[C@@](C)(CCC[C@@]4(C)C(=O)O[C@@H]4O[C@H](CO)[C@@H](O)[C@H](O[C@@H]5O[C@H](CO)[C@@H](O)[C@H](O)[C@H]5O)[C@H]4O[C@@H]4O[C@H](CO)[C@@H](O)[C@H](O)[C@H]4O)[C@@H]2CC[C@]1(O[C@@H]1O[C@H](CO)[C@@H](O)[C@H](O[C@@H]2O[C@H](CO)[C@@H](O)[C@H](O)[C@H]2O)[C@H]1O[C@@H]1O[C@H](CO)[C@@H](O)[C@H](O)[C@H]1O)C3 [Rebaudioside M, rebaudioside M]
80 ± 13	0.9	0.50 ± 0.03	OC[C@H]1O[C@H](O[C@]2(CCl)O[C@H](CCl)[C@@H](O)[C@@H]2O)[C@H](O)[C@@H](O)[C@H]1Cl [Sucralose]
	1.1	1.09 ± 0.01	brazzein (QDKCKKVYENYPVSKCQLANQCNYDCKLDKHARSGECFYDEKRNLQCICDYCEY; ends and bridges not checked; cysteine pairing not given here; UniProt P56552 1-54, looked up) [sweet-tasting protein obtained by recombinant production using the yeast Pichia pastoris]
	0.4	0.19 ± 0.04	thaumatin
3.3			thaumatin (protein, Eight disulfides, sweet-tasting plant protein, E957) ATFEIVNRCSYTVWAAASKGDAALDAGGRQLNSGESWTINVEPGTKGGKIWARTDCYFDDSGSGICKTGDCGGLLRCKRFGRPPTTLAEFSLNQYGKDYIDISNIKGFNVPMDFSPTTRGCRGVRCAADIVGQCPAKLKAPGGGCNDACTVFQTSEYCCTTGKCGPTEYSRFFKRLCPDAFSYVLDKPTTVTCPGSSNYRVTFCPTA
